In ChEMBL document CHEMBL1201862, “PubChem BioAssay data set” (2004):
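Where inhibition never reached the appropriate level, the endpoint shown equals the highest concentration tested. Otherwise, values were interpolated linearly from a five-concentration, 48-hour dose response in 96-well plates. GI50 marks 50% less growth.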 The source made the active and inactive calls. No stated cut-off is given here; in the data, active = GI50 up to about 1.1 µM and inactive = higher.

Legend:
Assay in all cases: NCI anticancer screen, dose series, 48 h
[1] = tested on: M14
[2] = tested on: Hs-578T
[3] = tested on: PC-3
[4] = tested on: OVCAR-3
[5] = tested on: SW-620
[6] = tested on: SR
[7] = tested on: LOX IMVI
[8] = tested on: K562
[9] = tested on: HCC 2998
[10] = tested on: IGROV-1
[11] = tested on: ACHN
[12] = tested on: SK-OV-3
[13] = tested on: HOP-62
[14] = tested on: COLO 205
[15] = tested on: HCT-116
[16] = tested on: SK-MEL-5
[17] = tested on: TK-10
[18] = tested on: NCI-H23
[19] = tested on: SN12C
[20] = tested on: SNB-75

SMILES	GI50 [1]	GI50 [2]	GI50 [3]	GI50 [4]	GI50 [5]	GI50 [6]	GI50 [7]	GI50 [8]	GI50 [9]	GI50 [10]	GI50 [11]	GI50 [12]	GI50 [13]	GI50 [14]	GI50 [15]	GI50 [16]	GI50 [17]	GI50 [18]	GI50 [19]	GI50 [20]
N#Cc1c(-c2ccc(Cl)cc2)c(-c2ccc(Cl)cc2)nn(CCOC(=O)CCC(=O)O)c1=O	0.399 µM (active)	1.38 µM (inactive)	0.423 µM (active)	0.361 µM (active)	0.995 µM (active)	0.291 µM (active)	0.667 µM (active)	0.344 µM (active)	0.618 µM (active)	0.925 µM (active)	1.45 µM (inactive)	0.778 µM (active)	0.64 µM (active)	0.582 µM (active)	0.6 µM (active)	0.166 µM (active)	4.11 µM (inactive)	2.16 µM (inactive)	0.851 µM (active)	0.193 µM (active)
CC(C)COC(=O)OC(=O)c1ccc(N(C)Cc2cnc3nc(N)nc(N)c3n2)cc1	9.44 µM (inactive)	> 100 µM (inactive)	2.47 µM (inactive)	> 100 µM (inactive)	3.86 µM (inactive)	0.521 µM (active)	1.41 µM (inactive)	0.466 µM (active)	> 100 µM (inactive)	8.3 µM (inactive)	11.4 µM (inactive)	> 100 µM (inactive)	59.7 µM (inactive)	> 75.3 µM (inactive)	2.43 µM (inactive)	5.22 µM (inactive)	> 88.1 µM (inactive)	11 µM (inactive)	> 100 µM (inactive)	> 38.2 µM (inactive)
S=C1SCN(Cc2ccco2)CN1c1ccc(Br)cc1	13.8 µM (inactive)	24.8 µM (inactive)	16.7 µM (inactive)	7.76 µM (inactive)	19.5 µM (inactive)	7.6 µM (inactive)	1.72 µM (inactive)	2.45 µM (inactive)	14.5 µM (inactive)	16.4 µM (inactive)	16 µM (inactive)	25.1 µM (inactive)	23.8 µM (inactive)	15.8 µM (inactive)	12.2 µM (inactive)	12.1 µM (inactive)	22.8 µM (inactive)	14.7 µM (inactive)	23.4 µM (inactive)	37.8 µM (inactive)
CN1CSC(=S)N(c2c3ccccc3nc3ccc(Br)cc23)C1	13.1 µM (inactive)	17.8 µM (inactive)	8.77 µM (inactive)	16.7 µM (inactive)	3.89 µM (inactive)	0.796 µM (active)	7.83 µM (inactive)	2.32 µM (inactive)	2.79 µM (inactive)	10.8 µM (inactive)	6.59 µM (inactive)	12.9 µM (inactive)	7.87 µM (inactive)	6.43 µM (inactive)	4.28 µM (inactive)	12.4 µM (inactive)	9.51 µM (inactive)	10 µM (inactive)	5.31 µM (inactive)	8.99 µM (inactive)
[N-]=[N+]=NC1=C(c2ccccn2)C(=O)c2cccc3cccc1c23	23.9 µM (inactive)	27 µM (inactive)	39.3 µM (inactive)	27.7 µM (inactive)	22.9 µM (inactive)	27.7 µM (inactive)	8.65 µM (inactive)	23.2 µM (inactive)	57.5 µM (inactive)	14.8 µM (inactive)	15.7 µM (inactive)	36.7 µM (inactive)	19.7 µM (inactive)	76.9 µM (inactive)	8.63 µM (inactive)	6.84 µM (inactive)	41.7 µM (inactive)	19.2 µM (inactive)	20.8 µM (inactive)	29 µM (inactive)
Cc1cc(C)nc(NS(=O)(=O)c2ccc(NC(=O)c3ccc4nc5ccccc5c(Nc5ccc(S(=O)(=O)N=C(N)N)cc5)c4c3)cc2)n1	> 100 µM (inactive)	> 100 µM (inactive)	> 100 µM (inactive)	> 100 µM (inactive)	> 100 µM (inactive)	> 100 µM (inactive)	> 100 µM (inactive)	46.6 µM (inactive)	> 100 µM (inactive)	> 100 µM (inactive)	> 100 µM (inactive)	> 100 µM (inactive)	> 100 µM (inactive)	> 100 µM (inactive)	> 100 µM (inactive)	> 100 µM (inactive)	> 100 µM (inactive)	> 100 µM (inactive)	> 100 µM (inactive)	> 100 µM (inactive)
O=C(OCc1ccccc1)N1c2cc([N+](=O)[O-])ccc2C(=O)N2CCC[C@H]2C1O (stereo not given in full)	> 100 µM (inactive)	> 100 µM (inactive)	> 100 µM (inactive)	> 100 µM (inactive)	> 100 µM (inactive)	> 100 µM (inactive)	> 100 µM (inactive)	> 100 µM (inactive)	> 100 µM (inactive)	> 100 µM (inactive)	> 100 µM (inactive)	> 100 µM (inactive)	> 100 µM (inactive)	> 100 µM (inactive)	> 100 µM (inactive)	> 100 µM (inactive)	> 100 µM (inactive)	> 100 µM (inactive)	> 100 µM (inactive)	> 100 µM (inactive)
CCOC(=O)/C=C(/C=C\COC1CCCCO1)c1ccccc1 (stereo not given)	38.6 µM (inactive)	22.3 µM (inactive)	35.6 µM (inactive)	29.2 µM (inactive)	28.3 µM (inactive)	18.8 µM (inactive)	15.4 µM (inactive)	28.5 µM (inactive)	> 100 µM (inactive)	31.2 µM (inactive)	48 µM (inactive)	33.6 µM (inactive)	> 100 µM (inactive)	> 100 µM (inactive)	16 µM (inactive)	35 µM (inactive)	> 100 µM (inactive)	38.4 µM (inactive)	22.9 µM (inactive)	23.4 µM (inactive)
COc1c(C(CC(C)C)OC(C)=O)ccc2c1C(=O)OCc1cc(C)cc(O)c1O2 (stereo not given)	16.7 µM (inactive)	22.1 µM (inactive)	9.73 µM (inactive)	10.5 µM (inactive)	17.5 µM (inactive)	> 100 µM (inactive)	12.6 µM (inactive)	> 100 µM (inactive)	12.8 µM (inactive)	16.6 µM (inactive)	10.5 µM (inactive)	15.8 µM (inactive)	18.7 µM (inactive)	17.6 µM (inactive)	12.6 µM (inactive)	11.1 µM (inactive)	17.7 µM (inactive)	10.3 µM (inactive)	14.2 µM (inactive)	19.2 µM (inactive)
COC1=C(OC)C(=O)c2cc(C)c(=O)c(C)cc2C1=O	16.9 µM (inactive)	23.1 µM (inactive)	20.3 µM (inactive)	10.4 µM (inactive)	8.61 µM (inactive)	2.65 µM (inactive)	11.2 µM (inactive)	3.19 µM (inactive)	22.4 µM (inactive)	18.6 µM (inactive)	14.8 µM (inactive)	22 µM (inactive)	21.3 µM (inactive)	19.1 µM (inactive)	15.3 µM (inactive)	15.8 µM (inactive)	19.1 µM (inactive)	16.9 µM (inactive)	2.81 µM (inactive)	18.4 µM (inactive)
Nc1cccc(CCN2CCN(CCCc3ccccc3)CC2)c1	17.6 µM (inactive)	25.1 µM (inactive)	70.1 µM (inactive)	19.4 µM (inactive)	30.5 µM (inactive)	19.2 µM (inactive)	18.1 µM (inactive)	12.9 µM (inactive)	15 µM (inactive)	37.3 µM (inactive)	> 100 µM (inactive)	> 100 µM (inactive)	36.5 µM (inactive)	19.5 µM (inactive)	17.6 µM (inactive)	20.1 µM (inactive)	74.1 µM (inactive)	50.2 µM (inactive)	95.3 µM (inactive)	> 100 µM (inactive)
CC1=C(C)CC(C#N)(C#N)C(C#N)(C#N)C1	2.86 µM (inactive)	> 10 µM (inactive)	> 6.35 µM (inactive)	> 5.52 µM (inactive)	2.31 µM (inactive)	0.0802 µM (active)	> 10 µM (inactive)	2.2 µM (inactive)	> 10 µM (inactive)	> 3.83 µM (inactive)	> 8.79 µM (inactive)	> 10 µM (inactive)	> 10 µM (inactive)	4.21 µM (inactive)	> 4.91 µM (inactive)	> 6.19 µM (inactive)	> 5.05 µM (inactive)	> 4.37 µM (inactive)	> 9.12 µM (inactive)	> 10 µM (inactive)
CN1CN(c2ccccc2)C2(CCN(C(=O)OC(C)(C)C)CC2)C1=O	> 100 µM (inactive)	57 µM (inactive)	> 100 µM (inactive)	> 100 µM (inactive)	> 100 µM (inactive)	> 100 µM (inactive)	> 100 µM (inactive)	75.3 µM (inactive)	> 100 µM (inactive)	> 100 µM (inactive)	> 100 µM (inactive)	> 100 µM (inactive)	> 100 µM (inactive)	> 100 µM (inactive)	> 100 µM (inactive)	> 100 µM (inactive)	> 100 µM (inactive)	> 100 µM (inactive)	> 100 µM (inactive)	> 100 µM (inactive)
NC(=S)Nc1ccc2c(c1)oc1ccccc12	> 100 µM (inactive)	> 100 µM (inactive)	> 100 µM (inactive)	> 100 µM (inactive)	> 100 µM (inactive)	> 100 µM (inactive)	> 100 µM (inactive)	> 100 µM (inactive)	> 100 µM (inactive)	> 100 µM (inactive)	> 100 µM (inactive)	> 100 µM (inactive)	> 100 µM (inactive)	> 100 µM (inactive)	> 100 µM (inactive)	18.9 µM (inactive)	> 100 µM (inactive)	> 83.6 µM (inactive)	> 100 µM (inactive)	> 100 µM (inactive)
